Results published in US20260091043A1, “COMPOSITIONS AND METHODS FOR TREATING MYCOBACTERIUM INFECTIONS” (DATA2DISCOVERY, INC., priority 2022, published 2026).
Like-named read-outs stand apart in the source and are kept apart here.

Assays:
[1] = system: M. abscessus (ATCC Smooth strain); experiment: M. abscessus (ATCC Smooth strain) resazurin growth inhibition assay; format: cell-based, Mycobacterium abscessus; conditions: for IC50 / IC90: Mycobacteroides abscessus; for activity against M. abscessus (in words): summary of table results
[2] = system: M. tuberculosis (H37RV strain); experiment: M. tuberculosis (H37RV strain) resazurin growth inhibition assay; format: cell-based, Mycobacterium tuberculosis; conditions: for IC50 / IC90: Mycobacterium tuberculosis; for activity against M. tuberculosis (in words): summary of table results
[3] = M. abscessus ATCC Smooth, 96 well plate, 37° C. 4 days, resazurin, read after 1 day, read-out: IC50
[4] = M. abscessus ATCC Smooth, 96 well plate, 37° C. 4 days, resazurin, read after 1 day, read-out: IC90
[5] = M. tuberculosis H37RV, 96 well plate, 37° C. 4 days, resazurin, read 3 days later, read-out: IC50
[6] = M. tuberculosis H37RV, 96 well plate, 37° C. 4 days, resazurin, read 3 days later, read-out: IC90

| SMILES | IC50 [1, 3] | IC90 [1, 4] | IC50 [2, 5] | IC90 [2, 6] | activity against M. abscessus (in words) [1] | activity against M. tuberculosis compared to kanamycin (in words) ([2]; comparison with control kanamycin) | activity against M. tuberculosis (in words) [2] | IC50 [1] | IC90 [1] | IC50 ([2]; H37RV) | IC90 ([2]; H37RV) |
| --- | --- | --- | --- | --- | --- | --- | --- | --- | --- | --- | --- |
| NCC[C@H](O)C(=O)N[C@@H]1C[C@H](N)[C@@H](O[C@H]2O[C@H](CN)[C@@H](O)[C@H](O)[C@H]2O)[C@H](O)[C@H]1O[C@H]1O[C@H](CO)[C@@H](O)[C@H](N)[C@H]1O [Amikacin] | 4.78 µM | 7.15 µM |  |  |  |  |  |  |  |  |  |
| NC[C@H]1O[C@H](O[C@H]2[C@H](O)[C@@H](O[C@H]3O[C@H](CO)[C@@H](O)[C@H](N)[C@H]3O)[C@H](N)C[C@@H]2N)[C@H](O)[C@@H](O)[C@@H]1O [Kanamycin] | 12.1 µM | 16.1 µM | 1.06 µM | 4.22 µM |  |  |  |  |  |  |  |
| O=C(Nc1ccc([N+](=O)[O-])cc1Cl)c1cc(Cl)ccc1O [Niclosamide, niclosamide] | 32.2 µM | 59.1 µM | 1.92 µM | 2.95 µM | significant activity | superior overall to kanamycin | significant activity |  |  |  |  |
| O=C(Nc1ccc(Br)cc1)c1cc(Br)cc(Br)c1O [Tribromsalan, 3,5,4′-tribromosalicylanilide] |  |  |  |  | significant activity |  | significant activity | 99.8 µM | 147 µM | 67.2 µM | 76.9 µM |
